The text below walks through data of paper PMC8869507, “Gel-Forming of Self-Assembling Peptides Functionalized with Food Bioactive Motifs Modulate DPP-IV and ACE Inhibitory Activity in Human Intestinal Caco-2 Cells” (Biomedicines, 2022).

Like-named read-outs stand apart in the source and are kept apart here.

In data set [1] the test system is ACE. On the set-up: method as in BIOPEP. The settings on record: from casein and soybean hydrolysates; ref BIOPEP; cited from earlier work.
The nature of data set [2]: Atomic force microscopy (AFM) of peptide nanostructures. The class given is physicochemical. The settings on record: AFM tapping mode, 0.01% w/v in distilled water, sonicated 30 min, on mica. As for the experimental part: AFM measurements were captured in tapping mode using a Tosca system (Anton Paar, Graz, Austria) using single-beam silicon cantilever probes. Peptides were dissolved in distilled water at a final concentration of 0.01% w/v and sonicated for 30 min, the same day as imaging. Then, 5 μL of peptide solution were deposited for 5 min on freshly cleaved mica, and distilled water was used to remove peptides loosely bound to the mica.

For data set [3], the system named is ACE. The experiment in a line: In vitro evaluation of ACE inhibition activity (HHL substrate). The class given is biochemical, porcine kidney. The settings on record: 1 mg/mL; HHL 2.5 mM, pH 8.3, preincubation 15 min 37 °C, incubation 60 min 37 °C, HPLC of hippuric acid. As for the experimental part: (§1) Peptide IAVP (1 mg/mL) was tested as previously described evaluating its DPP-IV and ACE inhibitory activity, respectively. For the evaluation of in vitro ACE inhibitory activity, a biochemical assay was used (further details are reported in supplementary materials).
(§2) Supplementary Materials for Gel‐forming of self‐assembling peptides functionalized with food bioactive motifs modulate DPP‐IV and ACE inhibitory ac‐ tivity in human intestinal Caco‐2 cells
(§3) Raffaele Pugliese1,*, Martina Bartolomei2, Carlotta Bollati2, Giovanna Boschin2, Anna Arnoldi2, and Carmen […]
(§4) In vitro evaluation of ACE inhibition activity. […]
(§5) The evaluation of the inhibition of ACE activity was based on the comparison between the concentrations of HA in the presence or absence of the inhibitor (Inhibitor Blank). The phenomenon of autolysis of HHL to give HA was evaluated by a reaction blank, i.e. a sample with the higher inhibitor concentration but without the enzyme. The percentage of ACE inhibition was calculated considering the area of the HA peak with the following formula: […] where AIB is the area of HA in the Inhibitor Blank (IB) sample (i.e., sample with enzyme but without inhibitor), AN is the area of HA in the samples containing different inhibitor amounts, and ARB is the area of HA in the Reaction Blank (RB) sample (i.e., sample without enzyme and with inhibitor at the highest concentration). […]

In data set [4] the test system is DPP-IV. In words: In vitro DPP-IV activity assay. Format: biochemical. As to conditions: IAVP up to 1 mg/mL (1, 10, 100, 500 and 1000 μg/mL), Tris-HCl pH 8.0, H-Gly-Pro-AMC, 37°, 30 min, fluorescence 350/465 nm, triplicate. The procedure:
as §1, §2, §3, §4, §5

Data set [5] deals with DPP-IV. The settings on record: cited from earlier work; for DPP-IV activity in situ: human Caco-2 cells; for DPP-IV activity in situ / DPP-IV activity in vitro: ref [1]; for IC50: plain solutions, ref [4]. From the text:
IAVPTGVA and LTFPGSAED (dubbed, respectively, Soy1 and Lup1) are two peptides derived from the hydrolysis of soybean glycinin and lupin β-conglutin, respectively. […] This difference was explained ...

For data set [6], the system named is ACE. The settings on record: ACE activity expressed by Caco-2 cells, dose–response; no reference printed in the sentence (sentence before: ref [28]); cited from earlier work. The source says:
This difference was explained ...

In data set [7] the test system is HMGCoAR. The settings on record: in vitro; ref [1],[2],[3],[4]; cited from earlier work. From the text: (§6) IAVPTGVA and LTFPGSAED (dubbed, respectively, Soy1 and Lup1) are two peptides derived from the hydrolysis of soybean glycinin and lupin β-conglutin, respectively.
Data set [8] relates to HepG2 cells. The settings on record: human HepG2 cells, ref [3],[5], cited from earlier work; for LDL uptake: LDL from the extracellular environment; for LDLR protein levels: through HMGCoAR inhibition.
Source text: as §6

For data set [9], the system named is DPP-IV and ACE. The settings on record: cited from earlier work; for concentration encapsulated needed for positive effect on DPP-IV and ACE: encapsulated in RADA16 hydrogel, previously reported by the authors, reference not given; for capability of inhibiting DPP-IV and ACE: non-covalently entrapped into RADA16, ref [10]. From the text:
(§7) However, such food-derived peptides show low stability, bioavailability (due to their rapid degradation by active peptidases located on the intestinal microvilli), and a poor propensity to form functional biomaterials (i.e., hydrogels), thus precluding their practical applications.

The test system of data set [10] is proteases. As to conditions: cited from earlier work; for bioavailability / resistance towards proteases: non-covalent encapsulation in RADA16 hydrogel vs plain solutions, previously reported by the authors, reference not given; for stability: non-covalently entrapped into RADA16, ref [10].
Source text: as §7

In data set [11] the test system is Caco-2 cells. The settings on record: cited from earlier work.
The subject of data set [12] is ACE. Further details: method as in PMID 32223157. The settings on record: metabolite of Lup1; ref [28]; cited from earlier work.
For data set [13], the system named is DPP-IV. On the set-up: method as in PMID 32223157. As to conditions: metabolite of Lup1; ref [28]; cited from earlier work.
For data set [14] the following is noted: non-covalently entrapped in RADA16; previously reported by the authors, reference not given; cited from earlier work.
Setting [15] is: DPP-IV expressed by Caco-2 cells, read-out: IC50 cellular DPP-IV.
Where [16] appears, read: purified enzymes, read-out: IC50 in vitro DPP-IV.

Take AVP: the “known ACE inhibitor peptide” value in data set [1] is “known ACE inhibitor peptides”.
Consider “Ac-IAVPTGVAGGGRADARADARADARADA-NH2 [fAP-Soy1, RADA16 functionalized at the N-terminus with Soy1 through a three-glycines spacer]”, for which the nanostructure morphology entry in data set [2] is on record as “short single nanofibers”.
Take “Ac-LTFPGSAEDGGGRADARADARADARADA-NH2 [fAP-Lup1, RADA16 functionalized at the N-terminus with Lup1 through a three-glycines spacer]”: the nanostructure morphology entry in data set [2] is “did not form nanofibers, but instead led to the formation of sparse round aggregates”.
As for “IAVP [small peptide from degradation of Soy1]”, in data set [3], the “reduction of in vitro ACE activity” value came to 20.1 ± 0.5%. Besides, in data set [4], the DPP-IV inhibitory activity entry is listed as “totally ineffective on DPP-IV”.
The IC50 is the concentration that inhibits the measured activity by half. Consider IAVPTGVA [Soy1], for which, in [5], the “DPP-IV activity in situ” value was “drop the in vitro and in situ human Caco-2 cells DPP-IV activity”; the “DPP-IV activity in vitro” value is “drop the in vitro and in situ human Caco-2 cells DPP-IV activity”. The IC50 in [5] (setting [15]) is 223 µM. Further, the half-inhibitory concentration (IC50) in data set [5] (setting [16]) is 106 µM. Further, the IC50 in [6] was 14.7 µM. Further, the HMGCoAR inhibition result in data set [7] was “act as in vitro HMGCoAR and DPP-IV inhibitors”. In addition, in data set [8], the LDL uptake entry is “improved the ability of hepatic cells to uptake LDL” and the LDLR protein levels entry was “upregulation of the LDLR protein levels”. In data set [9], the “concentration encapsulated needed for positive effect on DPP-IV and ACE” value is “more than 100 μM”; the “capability of inhibiting DPP-IV and ACE” value was “significantly improved as well as their capability of inhibiting DPP-IV and ACE”. Besides, in data set [10], the bioavailability result was “higher bioavailability”, the resistance towards proteases entry is “higher resistance towards the proteases” and the stability result was “significantly improved”. In addition, in data set [11] (Caco-2 trans-epithelial transport, ref [28],[29]), the “transport across the intestinal barrier” value is “able to across the intestinal barrier”. Besides, the “break-down fragments by intestinal peptidases” value in [11] (apical side of Caco-2 cells, trans-epithelial transport, ref [29]) is “metabolized in three breakdown fragments (AVPTGVA, IAVP, and IAV)”. In data set [11] (apical side of human intestinal Caco-2 cells, compared with Lup1, ref [28]), the “susceptibility to metabolic activity of peptidase” value is reported as “more suitable for the metabolic activity of peptidase”.
As for LTFPG [peptide cleaved from Lup1], the ACE inhibitory activity entry in data set [12] was “maintains its ACE inhibitory activity”. For the same substance, the DPP-IV inhibitory activity entry in [13] is “losing that against DPP-IV”.
For LTFPGSAED [Lup1], in [5], the “DPP-IV activity in situ” value was “drop the in vitro and in situ human Caco-2 cells DPP-IV activity”; the “DPP-IV activity in vitro” value is “drop the in vitro and in situ human Caco-2 cells DPP-IV activity”. Moreover, the concentration for half-maximal inhibition (IC50) in data set [5] (setting [15]) is 208 µM. Further, in [5] (setting [16]), the IC50 was 228 µM. Besides, the IC50 in data set [6] is 13.7 µM. Further, in data set [7], the HMGCoAR inhibition entry is “act as in vitro HMGCoAR and DPP-IV inhibitors”. Further, in data set [8], the LDL uptake entry is “improved the ability of hepatic cells to uptake LDL” and the LDLR protein levels entry was “upregulation of the LDLR protein levels”. Moreover, in [14], the “release from RADA16 hydrogel” value was “regularly delivered by the RADA16 hydrogel during the 360 min of controlled release tests”. Besides, in data set [9], the “concentration encapsulated needed for positive effect on DPP-IV and ACE” value is given as “more than 100 μM”; the “capability of inhibiting DPP-IV and ACE” value is “significantly improved as well as their capability of inhibiting DPP-IV and ACE”. Moreover, in data set [10], the bioavailability entry is recorded as “higher bioavailability”, the resistance towards proteases result is listed as “higher resistance towards the proteases” and the stability entry is “significantly improved”. Also, in data set [11], the “transport across the intestinal barrier” value is given as “able to across the intestinal barrier”.
Regarding RADA16, the nanostructure morphology entry in [2] was “self-assembles into long nanofibers”.
